# Test results published in PMC9996038, “Binding of RPR260243 at the intracellular side of the hERG1 channel pore domain slows closure of the helix bundle crossing gate” (Frontiers in Molecular Biosciences, 2023).
# Target: T1, hERG1a (human ether-à-go-go-related gene type 1, Kv11.1) (Homo sapiens, UniProt Q12809)
# T1 construct: gene KCNH2; EC50 on split hERG1a (residues 1–545 VSD module + residues 546–1,159 pore module, coexpressed)
# Test: two-electrode voltage clamp of channels expressed in Xenopus oocytes (slowing of deactivation)
# Type: cell-based
# T1 sequence (Q12809 546-1159): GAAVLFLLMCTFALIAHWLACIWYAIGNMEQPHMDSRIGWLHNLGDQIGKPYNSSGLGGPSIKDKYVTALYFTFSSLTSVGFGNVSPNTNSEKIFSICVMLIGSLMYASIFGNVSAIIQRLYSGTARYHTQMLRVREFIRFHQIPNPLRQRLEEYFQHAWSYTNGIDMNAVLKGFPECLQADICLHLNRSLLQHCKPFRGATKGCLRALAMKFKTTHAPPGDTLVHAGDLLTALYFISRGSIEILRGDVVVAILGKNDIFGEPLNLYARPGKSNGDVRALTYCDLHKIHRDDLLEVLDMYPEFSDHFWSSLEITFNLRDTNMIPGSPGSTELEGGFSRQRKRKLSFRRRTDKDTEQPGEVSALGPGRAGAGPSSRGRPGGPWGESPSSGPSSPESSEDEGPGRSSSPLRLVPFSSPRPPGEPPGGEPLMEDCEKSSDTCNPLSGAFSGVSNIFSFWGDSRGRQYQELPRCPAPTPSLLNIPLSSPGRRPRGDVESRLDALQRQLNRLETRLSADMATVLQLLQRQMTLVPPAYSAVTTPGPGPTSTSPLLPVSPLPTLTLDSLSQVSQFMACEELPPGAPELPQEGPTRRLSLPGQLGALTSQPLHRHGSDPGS
# T1 sequence (Q12809 1-545 partner): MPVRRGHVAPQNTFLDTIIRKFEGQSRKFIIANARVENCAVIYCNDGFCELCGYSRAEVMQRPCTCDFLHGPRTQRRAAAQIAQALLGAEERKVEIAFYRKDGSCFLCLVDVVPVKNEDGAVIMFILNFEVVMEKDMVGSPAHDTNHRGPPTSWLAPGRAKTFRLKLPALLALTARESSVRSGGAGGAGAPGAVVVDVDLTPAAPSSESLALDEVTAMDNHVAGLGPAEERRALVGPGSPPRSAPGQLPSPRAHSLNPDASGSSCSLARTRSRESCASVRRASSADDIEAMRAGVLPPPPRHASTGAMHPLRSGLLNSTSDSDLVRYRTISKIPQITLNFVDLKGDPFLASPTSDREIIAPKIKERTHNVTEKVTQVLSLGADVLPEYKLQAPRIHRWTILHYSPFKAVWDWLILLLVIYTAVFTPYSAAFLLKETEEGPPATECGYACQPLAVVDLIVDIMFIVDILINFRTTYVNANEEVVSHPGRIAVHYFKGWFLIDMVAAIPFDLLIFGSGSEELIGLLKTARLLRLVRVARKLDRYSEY
structure (smiles),measurement,value
"COc1ccc2nccc(C(=O)CC[C@@H]3CCN(CC#Cc4cc(F)cc(F)c4F)C[C@@H]3C(=O)O)c2c1 [RPR, (3R,4R)-4-[3-(6-methoxyquinolin-4-yl)-3-oxo-propyl]-1-[3-(2,3,5-trifluorophenyl)-prop-2-ynyl]-piperidine-3-carboxylic acid]",EC50,7.9 ± 1 µM
